Legend:
[1] = 101.33 kPa, Resistive pulse heating
[2] = Molar enthalpy of transition or fusion; conditions: Crystal; Resistive pulse heating

[V] [vanadium]
thermal conductivity [W/m/K], [1]
Conditions | Crystal | Liquid
2199 K | 41.35 | 39.08
2250 K | – | 39.8
2300 K | – | 40.49
2350 K | – | 41.17
2400 K | – | 41.82
2450 K | – | 42.46
2500 K | – | 43.08
2550 K | – | 43.68
2600 K | – | 44.26
2650 K | – | 44.83
2700 K | – | 45.37
2750 K | – | 45.91
2800 K | – | 46.42
2850 K | – | 46.91
2900 K | – | 47.39

Conditions | Molar enthalpy of transition or fusion [kcal/mol]
[2] | 4.94

Source: the NIST ThermoML archive (doi:10.1016/j.tca.2006.12.010)
